{"source": "patent US20240423992A1", "about": "“BIOMARKERS FOR TREATING LIVER DISORDERS WITH THR-B AGONISTS AND RELATED USES” (Madrigal Pharmaceuticals, Inc., priority 2023, published 2024)", "system": "adults with nonalcoholic fatty liver disease (NAFLD)/presumed nonalcoholic steatohepatitis (NASH)", "assay": "52-week Phase 3 trial (Example 1): thyroid hormone levels", "format": "in vivo, human", "method": "A 52-week randomized, double-blind, placebo-controlled Phase 3 trial was conducted to evaluate the safety and effect of resmetirom, an oral, once-daily, liver-targeted thyroid hormone receptor-β selective agonist, on multiple biomarkers in adults with nonalcoholic fatty liver disease (NAFLD)/presumed nonalcoholic steatohepatitis (NASH). Patients were randomized to three double-blind arms (100 mg resmetirom, 80 mg resmetirom, or placebo) or one open-label arm (100 mg resmetirom). Common concomitant medications across the 4 arms were antidiabetes drugs (such as glucagon-like peptide-1 receptor agonists (GLP-1 RAs), metformin, pioglitazone, and sodium/glucose cotransporter-2 inhibitors (SGLT2i)) and drugs to manage dyslipidemia (statins).\nSex hormone levels after 52 weeks of resmetirom treatment are shown in Table A. Thyroid hormone levels after 52 weeks of resmetirom treatment are reported in Table B.", "key": {"[1]": {"settings": "Resmetirom 100 mg DB vs Placebo DB, Week 52"}}, "data": [{"smiles": "CC(C)c1cc(Oc2c(Cl)cc(-n3nc(C#N)c(=O)[nH]c3=O)cc2Cl)n[nH]c1=O", "note": "[Resmetirom, 2-[3,5-dichloro-4-[(6-oxo-5-propan-2-yl-1H-pyridazin-3-yl)oxy]phenyl]-3,5-dioxo-1,2,4-triazine-6-carbonitrile]", "values": [{"measurement": "FT4 LSM Difference in % CFB", "setting": "[1]", "result": "−16.1", "unit": "%"}, {"measurement": "FT4 LSM Difference in CFB", "setting": "[1]", "result": -0.2, "unit": "ng/dL"}, {"measurement": "TBG (not on thyroxine) LSM Difference", "setting": "[1]", "result": -0.3, "unit": "mg/L"}, {"measurement": "TBG (thyroxine-treated) LSM Difference", "setting": "[1]", "result": -2.4, "unit": "mg/L"}, {"measurement": "TBG LSM Difference", "setting": "[1]", "result": -0.5, "unit": "mg/L"}, {"measurement": "TSH (not on thyroxine) LSM Difference", "setting": "[1]", "result": "−0.1", "unit": "mIU/L"}, {"measurement": "TSH (thyroxine-treated) LSM Difference", "setting": "[1]", "result": 0.0, "unit": "mIU/L"}, {"measurement": "TSH LSM Difference", "setting": "[1]", "result": "−0.1", "unit": "mIU/L"}, {"measurement": "rT3 (not on thyroxine) LSM Difference", "setting": "[1]", "result": -3.8, "unit": "ng/dL"}, {"measurement": "rT3 (thyroxine-treated) LSM Difference", "setting": "[1]", "result": -5.5, "unit": "ng/dL"}, {"measurement": "rT3 LSM Difference", "setting": "[1]", "result": -3.9, "unit": "ng/dL"}, {"measurement": "FT3 (not on thyroxine) LSM CFB", "setting": "Resmetirom 100 mg DB, Week 52", "result": -0.1, "unit": "ng/L"}, {"measurement": "FT3 (thyroxine-treated) LSM CFB", "setting": "Resmetirom 100 mg DB, Week 52", "result": -0.0, "unit": "ng/L"}, {"measurement": "FT3/rT3 (not on thyroxine) LSM CFB", "setting": "Resmetirom 100 mg DB, Week 52", "result": 0.04}, {"measurement": "FT3/rT3 (thyroxine-treated) LSM CFB", "setting": "Resmetirom 100 mg DB, Week 52", "result": 0.04}, {"measurement": "FT3/rT3 LSM CFB", "setting": "Resmetirom 100 mg DB, Week 52", "result": 0.04}, {"measurement": "FT3 LSM CFB", "setting": "Resmetirom 100 mg DB, Week 52", "result": -0.1, "unit": "ng/L"}, {"measurement": "FT4 (not on thyroxine) LSM % CFB", "setting": "Resmetirom 100 mg DB, Week 52", "result": "−14.3", "unit": "%"}, {"measurement": "FT4 (not on thyroxine) LSM CFB", "setting": "Resmetirom 100 mg DB, Week 52", "result": -0.2, "unit": "ng/dL"}, {"measurement": "FT4 (thyroxine-treated) LSM % CFB", "setting": "Resmetirom 100 mg DB, Week 52", "result": "−19.2", "unit": "%"}, {"measurement": "FT4 (thyroxine-treated) LSM CFB", "setting": "Resmetirom 100 mg DB, Week 52", "result": -0.2, "unit": "ng/dL"}, {"measurement": "FT4 LSM % CFB", "setting": "Resmetirom 100 mg DB, Week 52", "result": "−14.9", "unit": "%"}, {"measurement": "FT4 LSM CFB", "setting": "Resmetirom 100 mg DB, Week 52", "result": -0.2, "unit": "ng/dL"}, {"measurement": "TBG (not on thyroxine) LSM CFB", "setting": "Resmetirom 100 mg DB, Week 52", "result": 1.4, "unit": "mg/L"}, {"measurement": "TBG (thyroxine-treated) LSM CFB", "setting": "Resmetirom 100 mg DB, Week 52", "result": -0.2, "unit": "mg/L"}, {"measurement": "TBG LSM CFB", "setting": "Resmetirom 100 mg DB, Week 52", "result": 1.1, "unit": "mg/L"}, {"measurement": "TSH (not on thyroxine) LSM CFB", "setting": "Resmetirom 100 mg DB, Week 52", "result": "−0.3", "unit": "mIU/L"}, {"measurement": "TSH (thyroxine-treated) LSM CFB", "setting": "Resmetirom 100 mg DB, Week 52", "result": "−0.6", "unit": "mIU/L"}, {"measurement": "TSH LSM CFB", "setting": "Resmetirom 100 mg DB, Week 52", "result": "−0.4", "unit": "mIU/L"}, {"measurement": "rT3 (not on thyroxine) LSM CFB", "setting": "Resmetirom 100 mg DB, Week 52", "result": -2.9, "unit": "ng/dL"}, {"measurement": "rT3 (thyroxine-treated) LSM CFB", "setting": "Resmetirom 100 mg DB, Week 52", "result": -4.9, "unit": "ng/dL"}, {"measurement": "rT3 LSM CFB", "setting": "Resmetirom 100 mg DB, Week 52", "result": -3.2, "unit": "ng/dL"}, {"measurement": "FT3 (not on thyroxine) LSM CFB", "setting": "Resmetirom 100 mg OL, Week 52", "result": -0.1, "unit": "ng/L"}, {"measurement": "FT3 (thyroxine-treated) LSM CFB", "setting": "Resmetirom 100 mg OL, Week 52", "result": -0.1, "unit": "ng/L"}, {"measurement": "FT3/rT3 (not on thyroxine) LSM CFB", "setting": "Resmetirom 100 mg OL, Week 52", "result": 0.05}, {"measurement": "FT3/rT3 (thyroxine-treated) LSM CFB", "setting": "Resmetirom 100 mg OL, Week 52", "result": 0.03}, {"measurement": "FT3/rT3 LSM CFB", "setting": "Resmetirom 100 mg OL, Week 52", "result": 0.04}, {"measurement": "FT3 LSM CFB", "setting": "Resmetirom 100 mg OL, Week 52", "result": -0.2, "unit": "ng/L"}, {"measurement": "FT4 (not on thyroxine) LSM % CFB", "setting": "Resmetirom 100 mg OL, Week 52", "result": "−18.9", "unit": "%"}, {"measurement": "FT4 (not on thyroxine) LSM CFB", "setting": "Resmetirom 100 mg OL, Week 52", "result": -0.2, "unit": "ng/dL"}, {"measurement": "FT4 (thyroxine-treated) LSM % CFB", "setting": "Resmetirom 100 mg OL, Week 52", "result": "−14.8", "unit": "%"}, {"measurement": "FT4 (thyroxine-treated) LSM CFB", "setting": "Resmetirom 100 mg OL, Week 52", "result": -0.2, "unit": "ng/dL"}, {"measurement": "FT4 LSM % CFB", "setting": "Resmetirom 100 mg OL, Week 52", "result": "−16.1", "unit": "%"}, {"measurement": "FT4 LSM CFB", "setting": "Resmetirom 100 mg OL, Week 52", "result": -0.2, "unit": "ng/dL"}, {"measurement": "TBG (not on thyroxine) LSM CFB", "setting": "Resmetirom 100 mg OL, Week 52", "result": 0.7, "unit": "mg/L"}, {"measurement": "TBG (thyroxine-treated) LSM CFB", "setting": "Resmetirom 100 mg OL, Week 52", "result": -1.0, "unit": "mg/L"}, {"measurement": "TBG LSM CFB", "setting": "Resmetirom 100 mg OL, Week 52", "result": 0.1, "unit": "mg/L"}, {"measurement": "TSH (not on thyroxine) LSM CFB", "setting": "Resmetirom 100 mg OL, Week 52", "result": "−0.2", "unit": "mIU/L"}, {"measurement": "TSH (thyroxine-treated) LSM CFB", "setting": "Resmetirom 100 mg OL, Week 52", "result": 0.4, "unit": "mIU/L"}, {"measurement": "TSH LSM CFB", "setting": "Resmetirom 100 mg OL, Week 52", "result": 0.2, "unit": "mIU/L"}, {"measurement": "rT3 (not on thyroxine) LSM CFB", "setting": "Resmetirom 100 mg OL, Week 52", "result": -3.5, "unit": "ng/dL"}, {"measurement": "rT3 (thyroxine-treated) LSM CFB", "setting": "Resmetirom 100 mg OL, Week 52", "result": -3.9, "unit": "ng/dL"}, {"measurement": "rT3 LSM CFB", "setting": "Resmetirom 100 mg OL, Week 52", "result": -3.3, "unit": "ng/dL"}, {"measurement": "effect on active hormone free triiodothyronine (FT3)", "setting": "resmetirom arms", "result": "No effects"}, {"measurement": "effect on thyroid-stimulating hormone (TSH)", "setting": "resmetirom arms", "result": "No effects"}, {"measurement": "prohormone FT4 levels, change from baseline", "setting": "resmetirom arms", "result": "Minimal reductions from baseline"}]}]}
